In US12350403B2, “Methods of making therapeutic polymeric material” (priority 2015, dated 2025):
Values after ≈ are worked out from the molar mass of the structure shown.

Tests used:
[1] = cited from earlier work
Xen 29 [2] = test: Minimum inhibitory concentration against Xen 29; type: cell-based, S. aureus; details: Staphylococcus aureus, 29, read-out: Minimum inhibitory concentration of rifampin against Xen 29
[3] = value used for minimum release rate; cited from earlier work
Xen 29 [4] = details: cited from earlier work
[5] = human hip, assumed; cited from earlier work
[6] = UV-Vis spectra of vancomycin eluted from unirradiated and irradiated blend; type: physicochemical; details: blended in the polymeric material, with and without terminal irradiation
Experimental: Vancomycin HCl-blended UHMWPE was prepared with a concentration of 6 wt % vancomycin as described in Example 3. Consolidation was performed at 170° C. for 10 min at 20 MPa. The platens were then cooled down with air down to approximately 162° C. and then cooled down with water starting at approximately 156° C. down to about room temperature to obtain an approximately 3 mm-thick puck (approximately 10.5 mm diameter). Consolidated vancomycin-blended samples (VPE) were then either used as is or gamma irradiated at 100 kGy. UHMWPE without additives was used as control. In vitro elution of samples in all three groups was conducted in phosphate buffered saline (PBS) as described in Example 3. After no detectable vancomycin could be measured through UV-Vis, the presence of vancomycin grafted onto the surface of the polymer was determined by labeling with an anti-vancomycin antibody.

| Structure (SMILES) | share of intravenous antibiotic that penetrates bone [1] | MIC (Xen 29 [2]) [µg/mL] | minimum inhibitory concentration [3] [µg/mL] | Minimum inhibitory concentration of vancomycin against Xen 29 (Xen 29 [4]) [µg/mL] | approximate clearance half-life from the joint space [5] [h] | effect of irradiation on vancomycin (UV absorbance of eluted vancomycin) [6] |
| --- | --- | --- | --- | --- | --- | --- |
| Cc1nnc(SCC2=C(C(=O)O)N3C(=O)[C@@H](NC(=O)Cn4cnnn4)[C@H]3SC2)s1 [cefazolin] | 7-15% | – | – | – | – | – |
| CO/N=C(\C(=O)N[C@@H]1C(=O)N2C(C(=O)O)=C(CSc3nc(=O)c(=O)[nH]n3C)CS[C@H]12)c1csc(N)n1 [ceftriaxone] | 5-19% | – | – | – | – | – |
| CO[C@H]1/C=C/O[C@@]2(C)Oc3c(C)c(O)c4c(O)c(c(/C=N/N5CCN(C)CC5)c(O)c4c3C2=O)NC(=O)/C(C)=C\C=C\[C@H](C)[C@H](O)[C@@H](C)[C@@H](O)[C@@H](C)[C@H](OC(C)=O)[C@@H]1C [rifampin] | – | 0.01 (≈ 0.0122 µM) | 1 (≈ 1.22 µM) | – | – | – |
| CN[C@H](CC(C)C)C(=O)N[C@H]1C(=O)N[C@@H](CC(N)=O)C(=O)N[C@H]2C(=O)N[C@H]3C(=O)N[C@H](C(=O)N[C@H](C(=O)O)c4cc(O)cc(O)c4-c4cc3ccc4O)[C@H](O)c3ccc(c(Cl)c3)Oc3cc2cc(c3O[C@@H]2O[C@H](CO)[C@@H](O)[C@H](O)[C@H]2O[C@H]2C[C@](C)(N)[C@H](O)[C@H](C)O2)Oc2ccc(cc2Cl)[C@H]1O [vancomycin] | 5-20% | – | 2 (≈ 1.38 µM) | 1 | ~3.5 | not affected by irradiation |
